{"source": "patent US5391540A", "about": "“Substituted pyridine compounds” (Rohm and Haas Company, priority 1993, dated 1995)", "type_in_all_cases": "in vivo", "key": {"Downy Brome": {"system": "Downy Brome", "assay": "Pre-emergent herbicidal activity (Table A)", "details": "Bromus tectorum, pre-emergence, Dobr, 11.2 kg/ha, 10-14 days, read-out: herbicidal rating (% inhibition)", "procedure,_shortened": "(§1)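 Percent inhibition per species, scored on a rating scale, after pre-emergent soil incorporation: test compound in acetone or water carrier mixed into cover soil, layered over seeded topsoil or vegetative propagules.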"}, "Yellow Nutsedge": {"system": "Yellow Nutsedge", "assay": "Pre-emergent herbicidal activity (Table A)", "details": "Cyperus, pre-emergence, Yens, 11.2 kg/ha, 10-14 days, read-out: herbicidal rating (% inhibition)", "procedure,_shortened": "as §1"}, "Barnyardgrass": {"system": "Barnyardgrass", "assay": "Pre-emergent herbicidal activity (Table A)", "details": "Echinochloa crus-galli, pre-emergence, Bygr, 11.2 kg/ha, 10-14 days, read-out: herbicidal rating (% inhibition)", "procedure,_shortened": "as §1"}, "Velvetleaf": {"system": "Velvetleaf", "assay": "Pre-emergent herbicidal activity (Table A)", "details": "Abutilon theophrasti, pre-emergence, Vele, 11.2 kg/ha, 10-14 days, read-out: herbicidal rating (% inhibition)", "procedure,_shortened": "as §1"}, "Cocklebur": {"system": "Cocklebur", "assay": "Pre-emergent herbicidal activity (Table A)", "details": "Xanthium strumarium, pre-emergence, Cobu, 11.2 kg/ha, 10-14 days, read-out: herbicidal rating (% inhibition)", "procedure,_shortened": "as §1"}, "Morningglory": {"system": "Morningglory", "assay": "Pre-emergent herbicidal activity (Table A)", "details": "Ipomoea, pre-emergence, Mogl, 11.2 kg/ha, 10-14 days, read-out: herbicidal rating (% inhibition)", "procedure,_shortened": "as §1"}, "Prmi": {"system": "Prmi", "assay": "plant injury after spraying emerged plants (Table D)", "parameters": "scale not given here", "description": "(§2) Topsoil (silt loam) is sieved through a screen having 1.27 cm openings. […] This mixture is steam sterilized and then placed in aluminum pans 6.985 cm deep having ten holes in the bottom each 0.635 cm in diameter. The soil mixture is compacted to a depth of 1.27 cm. from the top of the pan. A predetermined number of seeds of each of several dicotyledonous and monocotyledonous annual plant species and/or vegetative propagules for the perennial plant species are placed on the soil and pressed into the soil surface. The seeds and/or vegetative propagules are covered with 1.27 cm of a mixture of 50% topsoil and 50% of a mixture of Canadian sphagnum peat moss, vermiculite and a wetting agent. The pans are then placed on a capillary mat on a greenhouse bench and subirrigated as needed.\n(§3) In the following Table D the legends used to identify the plant species are the same as those used in the preceding Table B."}, "Rice": {"system": "Rice", "assay": "plant injury after spraying emerged plants (Table D)", "parameters": "scale not given here", "description": "as §2, §3"}, "Corn": {"system": "Corn", "assay": "plant injury after spraying emerged plants (Table D)", "parameters": "scale not given here", "description": "as §2, §3"}, "Grso": {"system": "Grso", "assay": "plant injury after spraying emerged plants (Table D)", "parameters": "scale not given here", "description": "as §2, §3"}, "Sobe": {"system": "Sobe", "assay": "plant injury after spraying emerged plants (Table D)", "parameters": "scale not given here", "description": "as §2, §3"}, "Whez": {"system": "Whez", "assay": "plant injury after spraying emerged plants (Table D)", "parameters": "scale not given here", "description": "as §2, §3"}, "Bygr": {"system": "Bygr", "assay": "plant injury after spraying emerged plants (Table D)", "parameters": "scale not given here", "description": "as §2, §3"}, "Mogl": {"system": "Mogl", "assay": "plant injury after spraying emerged plants (Table D)", "parameters": "scale not given here", "description": "as §2, §3"}, "Grft": {"system": "Grft", "assay": "plant injury after spraying emerged plants (Table D)", "parameters": "scale not given here", "description": "as §2, §3"}, "Lacg": {"system": "Lacg", "assay": "plant injury after spraying emerged plants (Table D)", "parameters": "scale not given here", "description": "as §2, §3"}, "Cobu": {"system": "Cobu", "assay": "plant injury after spraying emerged plants (Table D)", "parameters": "scale not given here", "description": "as §2, §3"}}}
{"smiles": "COC(=O)c1c(OC)nc(C(F)(F)F)c(C(=O)n2ccc(F)n2)c1C1CCC1", "note": "[Compound 140, 3-pyridinecarboxylic acid, 4-cyclobuty1-5-[(3-fluoro-1H-pyrazo1-1-yl)carbonyl]-2-methoxy-6-(trifluoromethyl)-, methyl ester]", "values": [{"measurement": "inhibition at 11200 g/ha", "setting": "Downy Brome", "result": "75 to 100", "unit": "%"}, {"measurement": "inhibition at 11200 g/ha", "setting": "Yellow Nutsedge", "result": "0 to 24", "unit": "%"}, {"measurement": "inhibition at 11200 g/ha", "setting": "Barnyardgrass", "result": "75 to 100", "unit": "%"}, {"measurement": "inhibition at 11200 g/ha", "setting": "Velvetleaf", "result": "75 to 100", "unit": "%"}, {"measurement": "inhibition at 11200 g/ha", "setting": "Cocklebur", "result": "0 to 24", "unit": "%"}, {"measurement": "inhibition at 11200 g/ha", "setting": "Morningglory", "result": "75 to 100", "unit": "%"}, {"measurement": "plant injury rating, Prmi", "setting": "Prmi; 0.2803 kg/ha", "result": 0}, {"measurement": "plant injury rating, Prmi", "setting": "Prmi; 1.1210 kg/ha", "result": 0}, {"measurement": "plant injury rating, Prmi", "setting": "Prmi; 5.6050 kg/ha", "result": 0}, {"measurement": "plant injury rating, Rice", "setting": "Rice; 0.2803 kg/ha", "result": 0}, {"measurement": "plant injury rating, Rice", "setting": "Rice; 1.1210 kg/ha", "result": 0}, {"measurement": "plant injury rating, Rice", "setting": "Rice; 5.6050 kg/ha", "result": 0}, {"measurement": "plant injury rating, Corn", "setting": "Corn; 0.2803 kg/ha", "result": 2}, {"measurement": "plant injury rating, Corn", "setting": "Corn; 1.1210 kg/ha", "result": 1}, {"measurement": "plant injury rating, Corn", "setting": "Corn; 5.6050 kg/ha", "result": 2}, {"measurement": "plant injury rating, Grso", "setting": "Grso; 0.2803 kg/ha", "result": 0}, {"measurement": "plant injury rating, Grso", "setting": "Grso; 1.1210 kg/ha", "result": 0}, {"measurement": "plant injury rating, Grso", "setting": "Grso; 5.6050 kg/ha", "result": 0}, {"measurement": "plant injury rating, Sobe", "setting": "Sobe; 1.1210 kg/ha", "result": 2}, {"measurement": "plant injury rating, Sobe", "setting": "Sobe; 5.6050 kg/ha", "result": 2}, {"measurement": "plant injury rating, Whez", "setting": "Whez; 0.2803 kg/ha", "result": 0}, {"measurement": "plant injury rating, Whez", "setting": "Whez; 1.1210 kg/ha", "result": 0}, {"measurement": "plant injury rating, Whez", "setting": "Whez; 5.6050 kg/ha", "result": 0}, {"measurement": "plant injury rating, Bygr", "setting": "Bygr; 0.2803 kg/ha", "result": 0}, {"measurement": "plant injury rating, Bygr", "setting": "Bygr; 1.1210 kg/ha", "result": 0}, {"measurement": "plant injury rating, Bygr", "setting": "Bygr; 5.6050 kg/ha", "result": 0}, {"measurement": "plant injury rating, Mogl", "setting": "Mogl; 0.2803 kg/ha", "result": 2}, {"measurement": "plant injury rating, Mogl", "setting": "Mogl; 1.1210 kg/ha", "result": 2}, {"measurement": "plant injury rating, Mogl", "setting": "Mogl; 5.6050 kg/ha", "result": 2}, {"measurement": "plant injury rating, Grft", "setting": "Grft; 0.2803 kg/ha", "result": 0}, {"measurement": "plant injury rating, Grft", "setting": "Grft; 1.1210 kg/ha", "result": 0}, {"measurement": "plant injury rating, Grft", "setting": "Grft; 5.6050 kg/ha", "result": 0}, {"measurement": "plant injury rating, Lacg", "setting": "Lacg; 0.2803 kg/ha", "result": 2}, {"measurement": "plant injury rating, Lacg", "setting": "Lacg; 1.1210 kg/ha", "result": 2}, {"measurement": "plant injury rating, Lacg", "setting": "Lacg; 5.6050 kg/ha", "result": 3}, {"measurement": "plant injury rating, Cobu", "setting": "Cobu; 0.2803 kg/ha", "result": 1}, {"measurement": "plant injury rating, Cobu", "setting": "Cobu; 1.1210 kg/ha", "result": 3}, {"measurement": "plant injury rating, Cobu", "setting": "Cobu; 5.6050 kg/ha", "result": 3}]}
{"smiles": "COC(=O)c1c(OC)nc(C(F)(F)F)c(C(=O)SC)c1C1CCC1", "note": "[Compound 137, 3-pyridinecarboxylic acid, 4-cyclobuty1-2-methoxy-5-[(methylthio)carbonyl]-6-(trifluoromethyl)-, methyl ester]", "values": [{"measurement": "inhibition at 11200 g/ha", "setting": "Downy Brome", "result": "75 to 100", "unit": "%"}, {"measurement": "inhibition at 11200 g/ha", "setting": "Yellow Nutsedge", "result": "75 to 100", "unit": "%"}, {"measurement": "inhibition at 11200 g/ha", "setting": "Barnyardgrass", "result": "75 to 100", "unit": "%"}, {"measurement": "inhibition at 11200 g/ha", "setting": "Velvetleaf", "result": "75 to 100", "unit": "%"}, {"measurement": "inhibition at 11200 g/ha", "setting": "Cocklebur", "result": "75 to 100", "unit": "%"}, {"measurement": "inhibition at 11200 g/ha", "setting": "Morningglory", "result": "75 to 100", "unit": "%"}, {"measurement": "plant injury rating, Prmi", "setting": "Prmi; 0.2803 kg/ha", "result": 0}, {"measurement": "plant injury rating, Prmi", "setting": "Prmi; 1.1210 kg/ha", "result": 0}, {"measurement": "plant injury rating, Prmi", "setting": "Prmi; 5.6050 kg/ha", "result": 1}, {"measurement": "plant injury rating, Rice", "setting": "Rice; 0.2803 kg/ha", "result": 0}, {"measurement": "plant injury rating, Rice", "setting": "Rice; 1.1210 kg/ha", "result": 1}, {"measurement": "plant injury rating, Rice", "setting": "Rice; 5.6050 kg/ha", "result": 1}, {"measurement": "plant injury rating, Corn", "setting": "Corn; 0.2803 kg/ha", "result": 0}, {"measurement": "plant injury rating, Corn", "setting": "Corn; 1.1210 kg/ha", "result": 0}, {"measurement": "plant injury rating, Corn", "setting": "Corn; 5.6050 kg/ha", "result": 1}, {"measurement": "plant injury rating, Grso", "setting": "Grso; 0.2803 kg/ha", "result": 0}, {"measurement": "plant injury rating, Grso", "setting": "Grso; 1.1210 kg/ha", "result": 0}, {"measurement": "plant injury rating, Grso", "setting": "Grso; 5.6050 kg/ha", "result": 2}, {"measurement": "plant injury rating, Sobe", "setting": "Sobe; 0.2803 kg/ha", "result": 0}, {"measurement": "plant injury rating, Sobe", "setting": "Sobe; 1.1210 kg/ha", "result": 2}, {"measurement": "plant injury rating, Sobe", "setting": "Sobe; 5.6050 kg/ha", "result": 2}, {"measurement": "plant injury rating, Whez", "setting": "Whez; 0.2803 kg/ha", "result": 0}, {"measurement": "plant injury rating, Whez", "setting": "Whez; 1.1210 kg/ha", "result": 0}, {"measurement": "plant injury rating, Whez", "setting": "Whez; 5.6050 kg/ha", "result": 0}, {"measurement": "plant injury rating, Bygr", "setting": "Bygr; 0.2803 kg/ha", "result": 1}, {"measurement": "plant injury rating, Bygr", "setting": "Bygr; 1.1210 kg/ha", "result": 2}, {"measurement": "plant injury rating, Bygr", "setting": "Bygr; 5.6050 kg/ha", "result": 2}, {"measurement": "plant injury rating, Mogl", "setting": "Mogl; 0.2803 kg/ha", "result": 1}, {"measurement": "plant injury rating, Mogl", "setting": "Mogl; 1.1210 kg/ha", "result": 1}, {"measurement": "plant injury rating, Mogl", "setting": "Mogl; 5.6050 kg/ha", "result": 2}, {"measurement": "plant injury rating, Grft", "setting": "Grft; 0.2803 kg/ha", "result": 2}, {"measurement": "plant injury rating, Grft", "setting": "Grft; 1.1210 kg/ha", "result": 2}, {"measurement": "plant injury rating, Grft", "setting": "Grft; 5.6050 kg/ha", "result": 2}, {"measurement": "plant injury rating, Lacg", "setting": "Lacg; 0.2803 kg/ha", "result": 3}, {"measurement": "plant injury rating, Lacg", "setting": "Lacg; 1.1210 kg/ha", "result": 3}, {"measurement": "plant injury rating, Lacg", "setting": "Lacg; 5.6050 kg/ha", "result": 3}, {"measurement": "plant injury rating, Cobu", "setting": "Cobu; 0.2803 kg/ha", "result": 0}, {"measurement": "plant injury rating, Cobu", "setting": "Cobu; 1.1210 kg/ha", "result": 1}, {"measurement": "plant injury rating, Cobu", "setting": "Cobu; 5.6050 kg/ha", "result": 3}]}
